From article PMC10060569 (Frontiers in Pharmacology, 2023)
Like-named read-outs stand apart in the source and are kept apart here.

Key:
[1] = cited from earlier work
hP2X2/3R = target: T1, hP2X2/3R (Homo sapiens, UniProt P56373+Q9UBL9); test: TEVC of α,β-meATP-induced currents, heteromeric hP2X2/3R in X. laevis oocytes (steady-state protocol); format: cell-based
T1 construct: expressed in transfected cells; host or cells: Xenopus laevis oocytes (co-injection of cRNAs)
T1 sequence (Q9UBL9 1-471): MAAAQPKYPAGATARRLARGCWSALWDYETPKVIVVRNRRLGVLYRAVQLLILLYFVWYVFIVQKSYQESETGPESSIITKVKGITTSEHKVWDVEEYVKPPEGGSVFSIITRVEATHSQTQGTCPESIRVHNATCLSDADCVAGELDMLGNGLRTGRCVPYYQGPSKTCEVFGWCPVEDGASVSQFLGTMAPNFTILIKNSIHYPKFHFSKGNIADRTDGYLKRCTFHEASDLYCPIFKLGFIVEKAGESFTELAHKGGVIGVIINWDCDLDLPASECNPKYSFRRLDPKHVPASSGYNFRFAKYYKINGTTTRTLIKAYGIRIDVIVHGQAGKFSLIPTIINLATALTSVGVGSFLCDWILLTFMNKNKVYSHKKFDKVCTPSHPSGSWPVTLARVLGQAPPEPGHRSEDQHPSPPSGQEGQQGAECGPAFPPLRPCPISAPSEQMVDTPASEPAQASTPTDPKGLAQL
T1 sequence (P56373 1-397): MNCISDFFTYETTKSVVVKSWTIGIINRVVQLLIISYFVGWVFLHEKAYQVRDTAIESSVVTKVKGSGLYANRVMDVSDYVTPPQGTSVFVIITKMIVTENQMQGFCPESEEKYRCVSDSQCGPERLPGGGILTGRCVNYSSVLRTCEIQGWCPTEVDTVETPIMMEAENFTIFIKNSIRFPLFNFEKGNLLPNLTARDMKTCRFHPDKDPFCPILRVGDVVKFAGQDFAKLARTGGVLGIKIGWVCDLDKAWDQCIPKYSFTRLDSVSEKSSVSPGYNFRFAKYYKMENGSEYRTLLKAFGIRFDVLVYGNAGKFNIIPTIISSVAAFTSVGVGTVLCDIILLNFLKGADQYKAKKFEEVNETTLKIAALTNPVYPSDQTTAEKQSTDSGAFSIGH
Excerpt: Oocyte expression plasmids encoding the wild-type (wt) and N-terminally His-tagged (His-) fusion constructs of the hP2X2R, hP2X3R, hP2X4R, and hP2X7R, and the mutant His-^20RMVL^23KVIV^23S^26N-hP2X1R, S^15V-rP2X3R, and His-S^15V-hP2X3R were the same as used in previous research ([Hausmann et al., 2006]; [Wolf et al., 2011]; [Hausmann et al., 2014]; [Obrecht et al., 2019]). In most cases, the N-terminal His-tagged variants of P2XRs were used here and in the previous studies to allow biochemical analyses on affinity-purified proteins using the same constructs. Although this was not required for the present study, it allows for better comparability with our previous studies. Capped cRNAs of different P2XRs were already available in the research group or were synthesized as previously described ([Schmalzing et al., 1991]; [Stolz et al., 2015]). cRNA was injected into collagenase-defolliculated X. laevis oocytes in aliquots of 41 nl or 23 nl (see Supplementary Table S1 for the amount of cRNA used for expression of the indicated P2XR) using a Nanoliter 2000 injector (World Precision Instruments, Sarasota, United States of America) as described previously ([Hausmann et al., 2014]; [Stolz et al., 2015]; [Obrecht et al., 2019]). To express the heteromeric hP2X2/3 receptor, cRNAs encoding His-hP2X2R and wt-hP2X3R were coinjected at a ratio (w/w) of 1:6. Oocytes were stored at 19°C in an oocyte ringer solution (ORi^+) containing 90 mM NaCl, 1 mM KCl, 1 mM CaCl2, 1 mM MgCl2, and 10 mM HEPES (Carl Roth, Karlsruhe, Germany) adjusted to pH 7.4 with NaOH and supplemented with 50 μg/ml gentamicin (AppliChem, Darmstadt, Germany). The procedures followed for the maintenance of and the surgical treatment for X. laevis adults were approved by the governmental animal care and use committee of the State Agency for Nature, Environment, and Consumer Protection (LANUV, Recklinghausen, Germany; reference no. 81-02.04.2019. A355), in compliance with Directive 2010/63/EU of the European Parliament and of the Council on the protection of animals used for scientific purpose.
Ion currents mediated by P2X receptors were evoked by the indicated concentration of ATP or α,β-meATP and were recorded 1 or 2 days after cRNA injection at ambient temperature at a holding potential of −60 mV by two-electrode voltage clamp (TEVC) as previously described ([Hausmann et al., 2006]). Calcium-free ORi^− solution (90 mM NaCl, 1 mM KCl, 2 mM MgCl2, 10 mM HEPES, pH 7.4) was used to avoid bias due to calcium-activated chloride channels (CaCC) endogenously expressed in X. laevis oocytes ([Miledi, 1982]; [Methfessel et al., 1986]). For recordings of wt-hP2X7R, the composition of the ORi^− solution was modified according to protocols described previously and contained 100 mM NaCl, 2.5 mM KCl, 1 mM MgCl2, 5 mM HEPES, pH 7.4 ([Klapperstück et al., 2000]). The oocytes were continuously superfused with ORi^− by gravity flow (5–10 ml/min). The agonists ATP or α,β-meATP and the investigated NSAIDs were diluted in ORi^− on the day of the recording. The following agonist concentrations were used for the different P2X subtypes: 1 μM ATP (hP2X1R mutant, hP2X3R, rP2X3R, S^15V-hP2X3R, and S^15V-rP2X3R); 10 μM ATP (hP2X2R and hP2X4R); 300 μM free ATP^4- (hP2X7R); and 1 μM α,β-meATP (hP2X2/3R). […]

In the case of O=C(O)Cc1ccccc1Nc1c(Cl)cccc1Cl [Diclofenac, diclofenac], the “suspected cases of ageusia, dysgeusia, or taste disorders reported in the European Union” value ([1]; EudraVigilance up to 28/11/2022, ref http://www.adrreports.eu/de/) is listed as “more than 110 cases”, the “patients reporting an impaired taste sensation” value ([1]; prospective randomized clinical trial, postoperative administration, ref Attri et al., 2015) is listed as 58% and the IC50 (hP2X2/3R; 1 µM α,β-meATP, steady-state protocol, X. laevis oocytes) is listed as 76.7 µM. The “reduction of current amplitude in the presence of 3–10 µM diclofenac” value (hP2X2/3R; 3–10 µM diclofenac) was 20%–30%, the inhibition at 30 µM (hP2X2/3R; read-out: % inhibition by 30 µM diclofenac of 1 µM α,β-meATP-induced current) was 44.8% and the inhibition at 30 µM (hP2X2/3R; read-out: % inhibition by 30 µM diclofenac of 30 µM α,β-meATP-induced current) was 25.1%. It also gave an inhibition at 1000 µM (hP2X2/3R; read-out: Max. inhibition at 1 mM) of 97%.
